Each block holds one compound with its values, some of them ahead of it. Square brackets hold non-standard residues; d marks the D form. Peptide text beside a SMILES is read from it. * marks the point of attachment. pNA = O=[N+]([O-])c1ccc(N*)cc1; dNle = CCCC[C@@H](N)C(=O)O; Moc = COC(=O)*
Assays:
Type in all cases: biochemical
Set-up in all cases: coding for the FIX protease domain from amino acid position 181 to 415; Met (ATG start codon) (N); made in house
rFIXa (human) [1] = biological target: T1, rFIXa (human) (Homo sapiens, UniProt P00740); assay: Influence of alcohols and organic solvents on the activity of rFIXa, chromogenic peptide substrates; details: for V/V0: MeSO2-D-HHT-Gly-Arg-pNA 1.02 mmol/l, 0.48 μmol/l rFIXa; for V/V0 / effect on the activity of rFIXa (in words): pH 7.4; for effect on the activity of rFIXa (in words): additive 0-50%, MeSO2-D-HHT-Gly-Arg-pNA
Procedure: The reaction was started by adding FIXa.
MeSO2 -D-HHT-Gly-Arg-pNA→MeSO2 -D-HHT-Gly-Arg+pNA measurement signal: pNA
(§1) 0.48 μmol/l rFIXa (human)
0-50% (alcohol or organic solvent)
The ratio V/V0 was calculated to illustrate the stimulation of the catalytic activity of rFIXa.
V0, reaction rate without additives
V, reaction rate in the presence of additives
Test Mixture Chromogenic (Concentration in the Test)
Target sequence in this assay (P00740 227-461 limits assumed): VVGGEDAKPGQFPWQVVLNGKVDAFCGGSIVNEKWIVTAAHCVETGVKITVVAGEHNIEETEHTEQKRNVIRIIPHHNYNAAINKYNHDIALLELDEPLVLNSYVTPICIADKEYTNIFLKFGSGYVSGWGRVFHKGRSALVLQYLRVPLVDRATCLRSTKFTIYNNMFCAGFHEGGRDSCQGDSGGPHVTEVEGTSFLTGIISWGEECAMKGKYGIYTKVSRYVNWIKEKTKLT
Target sequence in this assay (P00740 131-226 partner limits assumed): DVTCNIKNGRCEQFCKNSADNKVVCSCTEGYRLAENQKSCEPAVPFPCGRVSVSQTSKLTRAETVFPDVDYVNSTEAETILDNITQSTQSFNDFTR

rFIXa (human) [2] = biological target: T1, rFIXa (human); assay: Influence of known protease inhibitors on the activity of rFIXa
Procedure: Specific FIXa inhibitors can be identified by the inhibition of FIXa activity. For this purpose the FIXa activity is determined with a substrate of the R-D-Xxx-Gly-Arg-pNA type (Xxx=hydrophobic amino acid) in the absence and presence of the substance to be tested or of a substance mixture and the percentage inhibition is calculated from the quotients. The inhibition constant Ki is determined from the inhibition kinetics. The measurement signal is amplified by the presence of high concentrations of certain alcohols (preferably ethylene glycol).
200 μl buffer (100 mmol/l Tris-HCl, 100 mmol/l NaCl, 5 mmol/l CaCl2, 20-40% alcohol, pH 7-9) the buffer contains the inhibitor at various concentrations […]
The reaction can also be terminated after 5-10 min by stopping with acetic acid (25 μl, 50%), the absorbance is determined at 405 nm against a reagent blank.
Influence of Known Protease Inhibitors on the Activity of rFIXa Using Different pHs, Alcohols and Alcohol Concentrations 42 mmol/l Tris-HCl, pH 7.4 or 8.5 substrate MeSO2 -D-CHG-Gly-Arg-pNA (1.02 mmol/l) […]
inhibitor at stepped concentrations (4.1-163 μmol/l)
Known synthetic inhibitors of the 3-amidinophenylalanine type were used as inhibitors (Sturzebecher et al, J. Enzyme. Inhibition 9 (1995) 87 and WO 92/08709) (1991)). The inhibitory effect was examined at a low and at a high alcohol concentration as an example.
Target sequence in this assay (P00740 227-461 limits assumed): as the sequence (P00740 227-461 limits assumed) above
Target sequence in this assay (P00740 131-226 limits assumed): as the sequence (P00740 131-226 partner limits assumed) above

rFIXa (human) [3] = biological target: T1, rFIXa (human); assay: Kinetics of cleavage of chromogenic peptide substrates by rFIXa with ethylene glycol (Lineweaver Burk); details: substrate MOC-D-Nle-Gly-Arg-pNA, rFIXa 0.48 μmol/l, pH 7.4
Procedure: MeSO2 -D-HHT-Gly-Arg-pNA (0.102-1.02 mmol/l)
as §1
Target sequence in this assay (P00740 227-461): as the sequence (P00740 227-461 limits assumed) above
Target sequence in this assay (P00740 131-226): as the sequence (P00740 131-226 partner limits assumed) above
MOC-D-Nle-Gly-Arg-pNA (0.102-1.02 mmol/l)
MeSO2 -D-CHG-Gly-Arg-pNA (0.102-1.02 mmol/l)
0.28 μmol/l rFIXa (human)
The kinetic constants (Kcat /Km) were determined graphically according to Lineweaver Burk (Km and Kcat cannot be determined separately since the straight lines go through the origin).

SMILES: N=C(N)c1cccc(CC(NS(=O)(=O)c2ccc3ccccc3c2)C(=O)N2Cc3ccccc3CC2C(=O)O)c1 (centres unmarked) [βNAPS-(3-Am)Phe-TIC-OH, Nα-(2-naphthylsulfonyl)-3-amidino-(D,L)-phenylalanine-1,2,3,4-tetrahydroisoquinoline-3-carboxylic acid]
Inhibition of the activity of factor IXa (in %) (rFIXa (human) [2]; inhibitor 4.1 μmol/l, pH 7.4, 4.1% ethanol, 0.57 μmol/l rFIXa): 97.2%
Inhibition of the activity of factor IXa (in %) (rFIXa (human) [2]; inhibitor 4.1 μmol/l, pH 7.4, 33% ethylene glycol, 0.057 μmol/l rFIXa): 100%
Inhibition of the activity of factor IXa (in %) (rFIXa (human) [2]; inhibitor 4.1 μmol/l, pH 8.5, 4.1% ethanol, […] rFIXa): 100%
Inhibition of the activity of factor IXa (in %) (rFIXa (human) [2]; inhibitor 4.1 μmol/l, pH 8.5, 33% ethylene glycol, […] rFIXa): 100%
Inhibition of the activity of factor IXa (in %) (rFIXa (human) [2]; inhibitor 8.2 μmol/l, pH 7.4, 4.1% ethanol, 0.57 μmol/l rFIXa): 97.2%
Inhibition of the activity of factor IXa (in %) (rFIXa (human) [2]; inhibitor 8.2 μmol/l, pH 7.4, 33% ethylene glycol, 0.057 μmol/l rFIXa): 100%
Inhibition of the activity of factor IXa (in %) (rFIXa (human) [2]; inhibitor 8.2 μmol/l, pH 8.5, 4.1% ethanol, […] rFIXa): 96.2%
Inhibition of the activity of factor IXa (in %) (rFIXa (human) [2]; inhibitor 8.2 μmol/l, pH 8.5, 33% ethylene glycol, […] rFIXa): 97.9%
Inhibition of the activity of factor IXa (in %) (rFIXa (human) [2]; inhibitor 16.3 μmol/l, pH 7.4, 4.1% ethanol, 0.57 μmol/l rFIXa): 88.2%
Inhibition of the activity of factor IXa (in %) (rFIXa (human) [2]; inhibitor 16.3 μmol/l, pH 7.4, 33% ethylene glycol, 0.057 μmol/l rFIXa): 85.4%
Inhibition of the activity of factor IXa (in %) (rFIXa (human) [2]; inhibitor 16.3 μmol/l, pH 8.5, 4.1% ethanol, […] rFIXa): 86.2%
Inhibition of the activity of factor IXa (in %) (rFIXa (human) [2]; inhibitor 16.3 μmol/l, pH 8.5, 33% ethylene glycol, […] rFIXa): 88.4%
Inhibition of the activity of factor IXa (in %) (rFIXa (human) [2]; inhibitor 40.8 μmol/l, pH 7.4, 4.1% ethanol, 0.57 μmol/l rFIXa): 75.4%
Inhibition of the activity of factor IXa (in %) (rFIXa (human) [2]; inhibitor 40.8 μmol/l, pH 7.4, 33% ethylene glycol, 0.057 μmol/l rFIXa): 62.6%
Inhibition of the activity of factor IXa (in %) (rFIXa (human) [2]; inhibitor 40.8 μmol/l, pH 8.5, 4.1% ethanol, […] rFIXa): 77.5%
Inhibition of the activity of factor IXa (in %) (rFIXa (human) [2]; inhibitor 40.8 μmol/l, pH 8.5, 33% ethylene glycol, […] rFIXa): 78.4%
Inhibition of the activity of factor IXa (in %) (rFIXa (human) [2]; inhibitor 81.6 μmol/l, pH 7.4, 4.1% ethanol, 0.57 μmol/l rFIXa): 57.0%
Inhibition of the activity of factor IXa (in %) (rFIXa (human) [2]; inhibitor 81.6 μmol/l, pH 7.4, 33% ethylene glycol, 0.057 μmol/l rFIXa): 41.0%
Inhibition of the activity of factor IXa (in %) (rFIXa (human) [2]; inhibitor 81.6 μmol/l, pH 8.5, 4.1% ethanol, […] rFIXa): 63.8%
Inhibition of the activity of factor IXa (in %) (rFIXa (human) [2]; inhibitor 81.6 μmol/l, pH 8.5, 33% ethylene glycol, […] rFIXa): 66.0%
Inhibition of the activity of factor IXa (in %) (rFIXa (human) [2]; inhibitor 163 μmol/l, pH 7.4, 4.1% ethanol, 0.57 μmol/l rFIXa): 25.7%
Inhibition of the activity of factor IXa (in %) (rFIXa (human) [2]; inhibitor 163 μmol/l, pH 7.4, 33% ethylene glycol, 0.057 μmol/l rFIXa): 28.9%
Inhibition of the activity of factor IXa (in %) (rFIXa (human) [2]; inhibitor 163 μmol/l, pH 8.5, 4.1% ethanol, […] rFIXa): 48.8%
Inhibition of the activity of factor IXa (in %) (rFIXa (human) [2]; inhibitor 163 μmol/l, pH 8.5, 33% ethylene glycol, […] rFIXa): 45.4%

SMILES: CO [Methanol]
V/V0 (rFIXa (human) [1]; 8% additive): 2.16
V/V0 (rFIXa (human) [1]; 16% additive): 3.46
V/V0 (rFIXa (human) [1]; 25% additive): 3.71
V/V0 (rFIXa (human) [1]; 33% additive): 2.83
V/V0 (rFIXa (human) [1]; 41% additive): 1.55
V/V0 (rFIXa (human) [1]; 50% additive): 0.588
stimulation of the activity of rFIXa (rFIXa (human) [1]; concentration range of 15-40%): 5-15 fold

SMILES: CC(C)(C)O [t-Butanol]
V/V0 (rFIXa (human) [1]; 8% additive): 2.05
V/V0 (rFIXa (human) [1]; 16% additive): 1.67
V/V0 (rFIXa (human) [1]; 25% additive): 0.702
V/V0 (rFIXa (human) [1]; 33% additive): 0.368
V/V0 (rFIXa (human) [1]; 41% additive): 0.263
V/V0 (rFIXa (human) [1]; 50% additive): 0.263

SMILES: CC#N [Acetonitrile]
V/V0 (rFIXa (human) [1]; 8% additive): 0.828
V/V0 (rFIXa (human) [1]; 16% additive): 0.314
V/V0 (rFIXa (human) [1]; 25% additive): 0
V/V0 (rFIXa (human) [1]; 33% additive): 0
V/V0 (rFIXa (human) [1]; 41% additive): 0
V/V0 (rFIXa (human) [1]; 50% additive): 0
effect on the activity of rFIXa (in words) (rFIXa (human) [1]): inactivate the enzyme

SMILES: CN(C)C=O [DMF, dimethylformamide]
V/V0 (rFIXa (human) [1]; 8% additive): 0.649
V/V0 (rFIXa (human) [1]; 16% additive): 0.514
V/V0 (rFIXa (human) [1]; 25% additive): 0
V/V0 (rFIXa (human) [1]; 33% additive): 0
V/V0 (rFIXa (human) [1]; 41% additive): 0
V/V0 (rFIXa (human) [1]; 50% additive): 0
effect on the activity of rFIXa (in words) (rFIXa (human) [1]): inactivate the enzyme

Second part, led by results:

V/V0 (rFIXa (human) [1]; 8% additive): 3.43
V/V0 (rFIXa (human) [1]; 16% additive): 2.26
V/V0 (rFIXa (human) [1]; 25% additive): 0.339
V/V0 (rFIXa (human) [1]; 33% additive): 0.186
V/V0 (rFIXa (human) [1]; 41% additive): 0.056
V/V0 (rFIXa (human) [1]; 50% additive): 0.056
SMILES: CCCO [n-Propanol]

V/V0 (rFIXa (human) [1]; 8 g/100 ml additive): 1.16
V/V0 (rFIXa (human) [1]; 16 g/100 ml additive): 1.35
V/V0 (rFIXa (human) [1]; 25 g/100 ml additive): 1.49
V/V0 (rFIXa (human) [1]; 33 g/100 ml additive): 1.56
V/V0 (rFIXa (human) [1]; 41 g/100 ml additive): 1.64
V/V0 (rFIXa (human) [1]; 50 g/100 ml additive): 1.77
effect on the activity of rFIXa (in words) (rFIXa (human) [1]): only has a slight effect
SMILES: OC[C@@H](O)[C@@H](O)CO [m-Erythritol]

kkat /Km (rFIXa (human) [3]; 16% ethylene glycol): 326 M⁻¹ s⁻¹
kkat /Km (rFIXa (human) [3]; 25% ethylene glycol): 565 M⁻¹ s⁻¹
kkat /Km (rFIXa (human) [3]; 33% ethylene glycol): 552 M⁻¹ s⁻¹
kkat /Km (rFIXa (human) [3]; 41% ethylene glycol): 360 M⁻¹ s⁻¹
kkat /Km (rFIXa (human) [3]; 50% ethylene glycol): 148 M⁻¹ s⁻¹
SMILES: CCCC[C@@H](NC(=O)OC)C(=O)NCC(=O)N[C@@H](CCCNC(=N)N)C(=O)Nc1ccc([N+](=O)[O-])cc1 [MOC--D--Nle--Gly--Arg--pNA, MOC-D-Nle-Gly-Arg-pNA] (Moc-[dNle]-Gly-Arg-pNA)

V/V0 (rFIXa (human) [1]; 8% additive): 2.17
V/V0 (rFIXa (human) [1]; 16% additive): 2.48
V/V0 (rFIXa (human) [1]; 25% additive): 1.18
V/V0 (rFIXa (human) [1]; 33% additive): 0.346
V/V0 (rFIXa (human) [1]; 41% additive): 0.164
V/V0 (rFIXa (human) [1]; 50% additive): 0.164
SMILES: CC(C)O [i-Propanol]

V/V0 (rFIXa (human) [1]; 8% additive): 1.27
V/V0 (rFIXa (human) [1]; 16% additive): 1.45
V/V0 (rFIXa (human) [1]; 25% additive): 1.59
V/V0 (rFIXa (human) [1]; 33% additive): 1.43
V/V0 (rFIXa (human) [1]; 41% additive): 0.922
V/V0 (rFIXa (human) [1]; 50% additive): 0.157
effect on the activity of rFIXa (in words) (rFIXa (human) [1]): does not inhibit rFIXa up to 30%
SMILES: C[S+](C)[O-] [DMSO, dimethylsulfoxide]

V/V0 (rFIXa (human) [1]; 8% additive): 1.12
V/V0 (rFIXa (human) [1]; 16% additive): 1.64
V/V0 (rFIXa (human) [1]; 25% additive): 2.47
V/V0 (rFIXa (human) [1]; 33% additive): 3.38
V/V0 (rFIXa (human) [1]; 41% additive): 4.82
V/V0 (rFIXa (human) [1]; 50% additive): 5.91
SMILES: OCC(O)CO [Glycerol]
effect on the activity of rFIXa (in words) (rFIXa (human) [1]): does not stimulate until higher concentrations (25-50%)

Source: patent US6087119A, “Method for determining the catalytic activity of factor IXa” (Roche Diagnostics GmbH, priority 1996, dated 2000)
